Reference: US7947726B2, “Non-steroidal ligands for the glucocorticoid receptor, and compositions thereof” (The Regents of the University of California, priority 2002, dated 2011)
Where “and” joins values, the source holds several entries; their conditions need not be identical. Equal values may be shown once.

Legend:
GR = molecular target: T1, GR (Rattus norvegicus, UniProt P06536); experiment: AP-1 repression luciferase assay in U2OS cells stably transfected with rat GR; assay type: cell-based; details: Table 5, TPA-stimulated U2OS cells; for EC50: read-out: Repression AP-1 pot (EC50); for Emax: U2OS, 12 h, read-out: Repression AP-1 % max repression
T1 construct: expressed in transfected cells; gift of Keith Yamamoto
T1 sequence (P06536 1-795): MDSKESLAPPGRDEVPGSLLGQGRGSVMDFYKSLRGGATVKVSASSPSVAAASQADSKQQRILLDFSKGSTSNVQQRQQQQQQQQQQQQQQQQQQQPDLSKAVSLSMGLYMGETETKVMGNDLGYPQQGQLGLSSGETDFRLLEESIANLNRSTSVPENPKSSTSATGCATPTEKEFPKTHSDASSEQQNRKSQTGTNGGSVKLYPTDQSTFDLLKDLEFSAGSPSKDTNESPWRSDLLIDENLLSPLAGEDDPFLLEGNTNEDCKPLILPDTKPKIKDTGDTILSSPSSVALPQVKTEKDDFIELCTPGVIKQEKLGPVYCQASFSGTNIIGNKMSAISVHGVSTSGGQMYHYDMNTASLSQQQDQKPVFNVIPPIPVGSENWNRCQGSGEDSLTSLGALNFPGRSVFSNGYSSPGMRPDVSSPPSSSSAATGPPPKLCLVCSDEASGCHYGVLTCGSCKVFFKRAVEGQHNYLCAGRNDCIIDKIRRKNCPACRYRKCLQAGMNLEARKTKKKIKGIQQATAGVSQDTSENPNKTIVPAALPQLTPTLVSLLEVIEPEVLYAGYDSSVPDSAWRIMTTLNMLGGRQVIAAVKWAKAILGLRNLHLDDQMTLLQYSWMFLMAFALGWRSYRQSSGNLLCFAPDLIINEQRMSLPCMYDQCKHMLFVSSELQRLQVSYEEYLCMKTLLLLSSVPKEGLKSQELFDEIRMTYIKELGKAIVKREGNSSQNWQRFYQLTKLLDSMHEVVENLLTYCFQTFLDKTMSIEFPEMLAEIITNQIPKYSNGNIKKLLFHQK
Procedure: For API repression assays, U2OS cells stably transfected with rat GR were grown in similar media as for CV-1 cells with the exception of the FBS concentration, which was 10% and the only antibiotic was […]. Cells were plated and transfected in a similar fashion, except for plasmids, which in this case were 50 ng/well AP1-Luc and 10 ng/well β-galactosidase. Post-transfection, cells were incubated with either 50 ng/mL TPA (Phorbol 12-myristate 13-acetate), or 50 ng/mL TPA and various hormone dilutions in 10% charcoal treated FBS media. The cells were incubated for 12 h, and the lysis, β-galactosidase assay, and luciferase assay were performed as previously described.

MR = molecular target: T2, MR (Homo sapiens, UniProt P08235); experiment: MR activation (max fold activation); assay type: cell-based; details: Table 4
T2 sequence (P08235 1-984): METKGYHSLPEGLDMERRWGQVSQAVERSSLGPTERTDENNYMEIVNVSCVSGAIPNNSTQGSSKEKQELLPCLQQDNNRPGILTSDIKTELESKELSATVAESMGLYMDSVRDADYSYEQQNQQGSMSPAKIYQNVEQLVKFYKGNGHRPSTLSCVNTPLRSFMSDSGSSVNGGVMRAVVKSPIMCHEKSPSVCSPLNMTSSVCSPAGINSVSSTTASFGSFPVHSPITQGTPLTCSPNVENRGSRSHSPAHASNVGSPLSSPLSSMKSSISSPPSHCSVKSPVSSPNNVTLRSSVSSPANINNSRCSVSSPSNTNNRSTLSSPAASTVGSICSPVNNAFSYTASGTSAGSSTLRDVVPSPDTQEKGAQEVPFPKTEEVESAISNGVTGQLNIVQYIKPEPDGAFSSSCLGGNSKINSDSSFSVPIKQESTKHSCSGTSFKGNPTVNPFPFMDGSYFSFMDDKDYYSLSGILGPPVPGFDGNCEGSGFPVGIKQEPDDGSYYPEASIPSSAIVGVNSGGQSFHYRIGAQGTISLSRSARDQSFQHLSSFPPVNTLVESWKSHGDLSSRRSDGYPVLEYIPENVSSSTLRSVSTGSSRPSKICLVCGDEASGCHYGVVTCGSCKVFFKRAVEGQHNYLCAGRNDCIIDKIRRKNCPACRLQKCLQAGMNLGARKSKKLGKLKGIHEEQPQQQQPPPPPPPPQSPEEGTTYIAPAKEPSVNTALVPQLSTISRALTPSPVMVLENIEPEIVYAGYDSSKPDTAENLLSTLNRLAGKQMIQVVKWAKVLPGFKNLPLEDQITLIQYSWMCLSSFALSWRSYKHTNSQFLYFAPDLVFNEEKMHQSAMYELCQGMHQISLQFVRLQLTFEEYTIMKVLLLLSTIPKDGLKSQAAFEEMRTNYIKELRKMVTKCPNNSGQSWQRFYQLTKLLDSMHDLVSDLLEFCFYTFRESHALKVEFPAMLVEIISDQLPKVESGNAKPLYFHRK

Row | Structure (SMILES) | EC50 (GR) | Emax (GR) | MR max fold activation (MR)
1 | Cc1cc(O)cc(C)c1C(O)C1CCCC2=Cc3c(cnn3-c3ccc(F)cc3)CC21C (stereo not drawn) [Compound 227, 4-{[1-(4-Fluoro-phenyl)-4a-methyl-4,4a,5,6,7,8-hexahydro-1H-benzo[f]indazol-5-yl]-hydroxy-methyl}-3,5-dimethyl-phenol] | 6 nM | 77% | 3.2 ± 0.9
2 | CC12Cc3cnn(-c4ccc(F)cc4)c3C=C1CCCC2C(O)c1cccc2[nH]ccc12 (stereo not drawn) [Compound 237, [1-(4-Fluoro-phenyl)-4a-methyl-4,4a,5,6,7,8-hexahydro-1H-benzo[f]indazol-5-yl]-(1H-indol-4-yl)-methanol] | 4.9 nM | 80% | 5.0 ± 1.5
3 | CC12Cc3cnn(-c4ccc(F)cc4)c3C=C1CCCC2C(O)c1ccsc1 (stereo not drawn) [Compound 238, [1-(4-Fluoro-phenyl)-4a-methyl-4,4a-5,6,7,8-hexahydro-1H-benzo[f]indazol-5-yl]-thiophen-3-yl-methanol] | 19.1 nM and 14.7 nM | 75% | 6.2 ± 0.9
